Consider six compounds from PMC12356538, “Targeting the SARS-CoV‑2 RNA Translation Initiation Element SL1 by Molecules of Low Molecular Weight” (Journal of the American Chemical Society, 2025).

Like-named read-outs stand apart in the source and are kept apart here.

Experiment [1] has as its system SL1 (wt)-Nanoluciferase mRNA. The class given is biochemical, SARS-CoV-2.
In experiment [2] the test system is β-Globin-Nanoluciferase mRNA. The experiment is described as follows: Cell-free translation assay in rabbit reticulocyte lysate, Nanoluciferase readout. The conditions noted are these: 0.2 μM mRNA, 2 μM compound. It counts as biochemical.
The target in experiment [3] is SL1 wt RNA. As to the kind of experiment: NMR-based KD estimation, ligand-detected 1D-1H titration. The class given is binding, SARS-CoV-2.
The test system of experiment [4] is SL1 RNA. As to the kind of experiment: RNA-detected NMR binding site mapping (2D-1H,1H-TOCSY and 1D-1H). The conditions noted are these: for 1H,1H CSPs [ppm] C16H5-H6 / 1H,1H CSPs [ppm] C19H5-H6 / 1H,1H CSPs [ppm] C20H5-H6 / 1H,1H CSPs [ppm] C21H5-H6 / 1H,1H CSPs [ppm] C28H5-H6 / 1H,1H CSPs [ppm] C33H5-H6 / 1H,1H CSPs [ppm] C34H5-H6 / 1H,1H CSPs [ppm] U9H5-H6 / 1H,1H CSPs [ppm] U10H5-H6 / 1H,1H CSPs [ppm] U11H5-H6 / 1H,1H CSPs [ppm] U13H5-H6 / 1H,1H CSPs [ppm] U17H5-H6 / 1H,1H CSPs [ppm] U18H5-H6 / 1H,1H CSPs [ppm] U25H5-H6 / 1H,1H CSPs [ppm] C15H5-H6 / 1H,1H CSPs [ppm] C32H5-H6: 2D TOCSY, RNA 150 μM, compound 1 mM, 298 K; for 1H CSPs [ppm] A12H2 / 1H CSPs [ppm] A29H2: RNA-detected 1D-1H. Details: species or system SARS-CoV-2.

Experiment [5] has as its system SL1 Δbulge-Nanoluciferase mRNA. It counts as biochemical, SARS-CoV-2.
Experiment [6] concerns SARS-CoV-2 SL1 RNA (SL1 wt). The class given is binding. The conditions noted are these: for wLOGSY factor / T2 reduction [%] / CSP [Hz]: 10 μM SL1 wt, 200 μM ligand; for wLOGSY factor / T2 reduction [%]: pH 6.2; for T2 reduction [%]: CPMG 100 vs 5 ms; for Rank: FBS ranking from summed ranks of CSP, wLOGSY and T2 results; for CSP [Hz]: ligand 1H CSP, [RNA]:[ligand] 1:20, pH 6.2.

Experiment [7] deals with SL1 Δbulge RNA. The class given is binding, SARS-CoV-2.
The mark [8] stands for this setting: ligand 100 μM, SL1 RNA 0 to 200 or 250 μM, 298 K, 600 MHz, pH 6.2, read-out: KD est.
Where [9] appears, read: Suppl. Table 7, ligand constant at 100, SL1 wt RNA concentration 0-200, read-out: KDest.

Consider `CNC(=N)Nc1nc2ccc(OC)cc2s1` [A.4], for which the “effect on translation of SL1 wt mRNA, in words” value in experiment [1] is listed as “inhibitory effect”. Also, the “effect on translation of β-globin mRNA, in words” value in experiment [2] is reported as “boost”. In experiment [3] (Suppl. Table 7, ligand constant at 100, SL1 wt RNA concentration 0-250, read-out: KDest), the Kd is 102 µM. The Kd in experiment [3] (setting [8]) is 102 ± 8 µM. In experiment [4], the “binding site / selectivity for the bulge from CSP and LB mapping, in words” value is recorded as “bound the bulge less selectively”; the “1H,1H CSPs [ppm] C16H5-H6” value is 0.0103 ppm; the “1H,1H CSPs [ppm] C19H5-H6” value is given as 0.0293 ppm; the “1H,1H CSPs [ppm] C20H5-H6” value was 0.0526 ppm. Further, in experiment [4], the “1H,1H CSPs [ppm] C21H5-H6” value came to 0.0441 ppm, the “1H,1H CSPs [ppm] C28H5-H6” value amounted to 0.1355 ppm, the “1H,1H CSPs [ppm] C33H5-H6” value turned out to be 0.0050 ppm and the “1H,1H CSPs [ppm] C34H5-H6” value worked out at 0.0072 ppm. Further, in experiment [4], the “1H,1H CSPs [ppm] U9H5-H6” value is on record as 0.0130 ppm, the “1H,1H CSPs [ppm] U10H5-H6” value came to 0.0146 ppm, the “1H,1H CSPs [ppm] U11H5-H6” value worked out at 0.0030 ppm and the “1H,1H CSPs [ppm] U13H5-H6” value came out at 0.0999 ppm. Further, in experiment [4], the “1H,1H CSPs [ppm] U17H5-H6” value was found to be 0.0288 ppm, the “1H,1H CSPs [ppm] U18H5-H6” value is reported as 0.0191 ppm, the “1H,1H CSPs [ppm] U25H5-H6” value amounted to 0.0099 ppm and the “1H CSPs [ppm] A12H2” value is reported as 0.1560 ppm. Also, in experiment [4], the “1H CSPs [ppm] A29H2” value was 0.0670 ppm. In addition, in experiment [5], the “effect on translation of SL1 Δbulge mRNA, in words” value was “inhibitory effect”. For the same compound, in experiment [6], the wLOGSY factor was found to be 1.21, the “T2 reduction [%]” value was 77.83% and the “CSP [Hz]” value came to 16.14 Hz. In experiment [6] (SL1 wt), this compound yielded a Rank of 20. In addition, the “FBS binding to SL1, in words” value in experiment [6] (ligand-detected NMR, SL1 wt) is on record as “strongest FBS effects”. Besides, in experiment [7], the “CSP [Hz]” value was found to be 8.19 Hz, the Rank is recorded as 1, the “T2 reduction [%]” value came to 90.18% and the wLOGSY factor worked out at 0.69.

As for `CNC(=O)Nc1nc2c(OC)cc(OC)cc2s1` [A.11], the “effect on translation of SL1 wt mRNA, in words” value in experiment [1] is “no inhibition”. Also, in experiment [4], the “1H,1H CSPs [ppm] C15H5-H6” value is 0.0010 ppm, the “1H,1H CSPs [ppm] C16H5-H6” value stood at 0.0020 ppm, the “1H,1H CSPs [ppm] C19H5-H6” value stood at 0.0036 ppm and the “1H,1H CSPs [ppm] C20H5-H6” value is recorded as 0.0045 ppm. Also, in experiment [4], the “1H,1H CSPs [ppm] C21H5-H6” value was found to be 0.0061 ppm, the “1H,1H CSPs [ppm] C28H5-H6” value is recorded as 0.0130 ppm, the “1H,1H CSPs [ppm] C32H5-H6” value worked out at 0.0063 ppm and the “1H,1H CSPs [ppm] C33H5-H6” value is 0.0010 ppm. Further, in experiment [4], the “1H,1H CSPs [ppm] C34H5-H6” value turned out to be 0.0025 ppm, the “1H,1H CSPs [ppm] U9H5-H6” value amounted to 0.0040 ppm, the “1H,1H CSPs [ppm] U10H5-H6” value worked out at 0.0072 ppm and the “1H,1H CSPs [ppm] U11H5-H6” value was found to be 0.0311 ppm. Besides, in experiment [4], the “1H,1H CSPs [ppm] U13H5-H6” value is 0.0216 ppm, the “1H,1H CSPs [ppm] U17H5-H6” value turned out to be 0.0010 ppm, the “1H,1H CSPs [ppm] U18H5-H6” value is reported as 0.0043 ppm and the “1H,1H CSPs [ppm] U25H5-H6” value turned out to be 0.0045 ppm. In addition, in experiment [4], the “1H CSPs [ppm] A12H2” value turned out to be 0.0400 ppm and the “1H CSPs [ppm] A29H2” value is 0.0040 ppm. In addition, in experiment [6], the wLOGSY factor is given as 1.51, the “T2 reduction [%]” value is recorded as 93.00% and the “CSP [Hz]” value is recorded as 4.50 Hz. For the same compound, in experiment [6] (SL1 wt), the Rank was 19. The “FBS result (CSP, wLOGSY, T2 reduction) in words” value in experiment [7] is given as “no effects”.

As for `COc1ccc(-c2nnc(NC(=O)CN(C)C)s2)cc1OC` [A.31], the “effect on translation of SL1 wt mRNA, in words” value in experiment [1] is on record as “nonspecific effects”. Moreover, in experiment [3] (setting [9]), the Kd is 146 µM. In addition, the Kd in experiment [3] (setting [8]) was 146 ± 13 µM. In addition, in experiment [4], the “binding site / selectivity for the bulge from CSP and LB mapping, in words” value is “weaker binding characteristics”; the “1H,1H CSPs [ppm] C15H5-H6” value is recorded as 0.0032 ppm; the “1H,1H CSPs [ppm] C16H5-H6” value amounted to 0.0073 ppm; the “1H,1H CSPs [ppm] C19H5-H6” value came to 0.0042 ppm. Also, in experiment [4], the “1H,1H CSPs [ppm] C20H5-H6” value was determined as 0.0021 ppm, the “1H,1H CSPs [ppm] C21H5-H6” value worked out at 0.0010 ppm, the “1H,1H CSPs [ppm] C28H5-H6” value is reported as 0.0228 ppm and the “1H,1H CSPs [ppm] C32H5-H6” value came out at 0.0130 ppm. In experiment [4], the “1H,1H CSPs [ppm] C33H5-H6” value is recorded as 0.0067 ppm, the “1H,1H CSPs [ppm] C34H5-H6” value is 0.0204 ppm, the “1H,1H CSPs [ppm] U9H5-H6” value is listed as 0.0104 ppm and the “1H,1H CSPs [ppm] U10H5-H6” value worked out at 0.0112 ppm. Also, in experiment [4], the “1H,1H CSPs [ppm] U11H5-H6” value came out at 0.0256 ppm, the “1H,1H CSPs [ppm] U13H5-H6” value worked out at 0.0206 ppm, the “1H,1H CSPs [ppm] U17H5-H6” value is 0.0067 ppm and the “1H,1H CSPs [ppm] U18H5-H6” value is 0.0021 ppm. For the same compound, in experiment [4], the “1H,1H CSPs [ppm] U25H5-H6” value worked out at 0.0122 ppm, the “1H CSPs [ppm] A12H2” value came to 0.0630 ppm and the “1H CSPs [ppm] A29H2” value is recorded as 0.0000 ppm. Further, in experiment [6], the wLOGSY factor is on record as 1.71, the “T2 reduction [%]” value came out at 100.00% and the “CSP [Hz]” value came to 24.42 Hz. In experiment [6] (SL1 wt), this compound registered a Rank of 1. Also, the “FBS result (CSP, wLOGSY, T2 reduction) in words” value in experiment [7] is reported as “no effects”.

On to `COc1ccc2nc(NC(=O)CN3CCC[C@H](NCCN(C)c4cccc(O)c4)C3)sc2c1` [A.48], for which, in experiment [3] (setting [9]), the Kd is 304 µM. Further, in experiment [6], the wLOGSY factor is 0.00, the “T2 reduction [%]” value is on record as 74.30% and the “CSP [Hz]” value came to 17.28 Hz. Also, in experiment [6] (SL1 wt), the Rank is listed as 32. Further, in experiment [7], the “CSP [Hz]” value was found to be 2.16 Hz, the Rank is 9, the “T2 reduction [%]” value was 0.59% and the wLOGSY factor was found to be 10.82.

With `CCN(CCN[C@H]1CCCN(CC(=O)Nc2nc3ccc(OC)cc3s2)C1)c1cccc(O)c1` [A.49], the Kd in experiment [3] (setting [9]) was 530 µM. Also, in experiment [6], the wLOGSY factor is listed as 0.00, the “T2 reduction [%]” value is 72.85% and the “CSP [Hz]” value is reported as 15.15 Hz. This compound also came in with a Rank in experiment [6] (SL1 wt) of 34. The “FBS result (CSP, wLOGSY, T2 reduction) in words” value in experiment [7] is given as “no effects”.

As to `COc1ccc2nc(NC(=O)CN3CCC[C@@H](NCCN(C)c4cccc(O)c4)C3)sc2c1` [A.50], the KDest entry in experiment [3] (Suppl. Table 7, ligand constant at 100, SL1 wt RNA concentration 0-200) is given as “ambiguous”. Also, in experiment [6], the wLOGSY factor is recorded as 0.00, the “T2 reduction [%]” value is 72.85% and the “CSP [Hz]” value came out at 15.17 Hz. In addition, in experiment [6] (SL1 wt), the Rank was 33. The “FBS result (CSP, wLOGSY, T2 reduction) in words” value in experiment [7] is given as “no effects”.
